In US11820766B2, “Monoacylglycerol lipase modulators” (Janssen Pharmaceutica NV, priority 2018, dated 2023):

Molecular target: T1, human MGL from HeLa cells (Homo sapiens, UniProt Q99685)
T1 construct: combining endogenously expressed MGL from HeLa cells with test compounds; endogenous in cells; host or cells: HeLa cells / cell homogenates
T1 sequence (Q99685 1-303): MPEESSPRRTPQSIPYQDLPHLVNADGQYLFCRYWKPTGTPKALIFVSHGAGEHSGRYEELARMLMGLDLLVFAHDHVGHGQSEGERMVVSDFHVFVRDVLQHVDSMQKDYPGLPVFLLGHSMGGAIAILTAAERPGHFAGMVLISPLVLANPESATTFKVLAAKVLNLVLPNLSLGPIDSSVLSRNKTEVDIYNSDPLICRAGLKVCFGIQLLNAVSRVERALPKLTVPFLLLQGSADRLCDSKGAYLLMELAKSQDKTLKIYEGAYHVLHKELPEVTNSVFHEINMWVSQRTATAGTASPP
Assay: In vitro MGL activity assay: [glycerol-1,3-3H]-oleyl glycerol cleavage by MGL from HeLa cells
Type: biochemical
Settings: 300 nM [Glycerol-1,3-3H]-oleyl glycerol, one hour
Description: MGL is the predominant hydrolase in HeLa cells/cell homogenates.

SMILES	IC50 [nM]
Cc1cccc2ncc(C(=O)N3CCc4c(nn(C)c4-c4cc(F)c(F)c(F)c4)[C@@H]3C)n12 [Example 401, [(7S)-2,7-Dimethyl-3-(3,4,5-trifluorophenyl)-5,7-dihydro-4H-pyrazolo[3,4-c]pyridin-6-yl]-(5-methylimidazo[1,2-a]pyridin-3-yl)methanone]	14.5
C[C@H]1c2nn(C)c(-c3cc(F)c(F)c(F)c3)c2CCN1C(=O)c1cnn(C)c1C1CC1F (mixture of isomers) [Example 340, ((S)-2,7-Dimethyl-3-(3,4,5-trifluorophenyl)-2,4,5,7-tetrahydro-6H-pyrazolo[3,4-c]pyridin-6-yl)(trans-5-(2-fluorocyclopropyl)-1-methyl-1H-pyrazol-4-yl)methanone]	32.5
C[C@H]1c2nn(C)c(-c3cc(F)c(F)c(F)c3)c2CCN1C(=O)c1cc2c(cn1)OCCC2 [Example 573, 3,4-Dihydro-2H-pyrano[2,3-c]pyridin-6-yl-[(7S)-2,7-dimethyl-3-(3,4,5-trifluorophenyl)-5,7-dihydro-4H-pyrazolo[3,4-c]pyridin-6-yl]methanone]	242
COc1cccc2c(C(=O)N3CCc4c(nn(C)c4-c4cc(F)c(F)c(F)c4)[C@@H]3C)cnn12 [Example 387, [(7S)-2,7-Dimethyl-3-(3,4,5-trifluorophenyl)-5,7-dihydro-4H-pyrazolo[3,4-c]pyridin-6-yl]-(7-methoxypyrazolo[1,5-a]pyridin-3-yl)methanone]	26.4
C[C@H]1c2nn(C)c(-c3cc(F)c(F)c(F)c3)c2CCN1C(=O)c1nccc2cc[nH]c12 [Example 376, [(7S)-2,7-Dimethyl-3-(3,4,5-trifluorophenyl)-5,7-dihydro-4H-pyrazolo[3,4-c]pyridin-6-yl]-(1H-pyrrolo[2,3-c]pyridin-7-yl)methanone]	599
C[C@H]1c2nn(C)c(-c3cc(F)c(F)c(F)c3)c2CCN1C(=O)c1c[nH]c2ncc(F)cc12 [Example 374, [(7S)-2,7-Dimethyl-3-(3,4,5-trifluorophenyl)-5,7-dihydro-4H-pyrazolo[3,4-c]pyridin-6-yl]-(5-fluoro-1H-pyrrolo[2,3-b]pyridin-3-yl)methanone]	21
C[C@H]1c2nn(C)c(-c3cccc4c3OC(F)(F)O4)c2CCN1C(=O)c1ccc2ncccc2c1 [Example 542, [(7S)-3-(2,2-Difluoro-1,3-benzodioxol-4-yl)-2,7-dimethyl-5,7-dihydro-4H-pyrazolo[3,4-c]pyridin-6-yl]-(6-quinolyl)methanone]	81.2
Cc1cnn2ncc(C(=O)N3CCc4c(nn(C)c4-c4cc(F)c(F)c(F)c4)[C@@H]3C)c2c1 [Example 443, [(7S)-2,7-Dimethyl-3-(3,4,5-trifluorophenyl)-5,7-dihydro-4H-pyrazolo[3,4-c]pyridin-6-yl]-(5-methylpyrazolo[1,5-b]pyridazin-3-yl) methanone]	12.4
C[C@H]1c2nn(C)c(-c3cccc(F)c3F)c2CCN1C(=O)c1ccc2ncccc2c1 [Example 503, [(7S)-3-(2,3-Difluorophenyl)-2,7-dimethyl-5,7-dihydro-4H-pyrazolo[3,4-c]pyridin-6-yl]-(6-quinolyl)methanone]	22
C[C@H]1c2nn(C)c(-c3cc(F)cc(OC(F)F)c3)c2CCN1C(=O)c1ccc2c(c1)OCCC2 [Example 596, Chroman-7-yl-[(7S)-3-[3-(difluoromethoxy)-5-fluoro-phenyl]-2,7-dimethyl-5,7-dihydro-4H-pyrazolo[3,4-c]pyridin-6-yl]methanone]	28.7

Same assay, conditions: 300 nM [Glycerol-1,3-3H]-oleyl glycerol, one hour incubation

SMILES	IC50 [nM]
COc1ccc(C(=O)N2CCc3c(nn(C)c3-c3cc(F)c(F)c(F)c3)[C@@H]2C)cn1 [Example 300, [(7S)-2,7-Dimethyl-3-(3,4,5-trifluorophenyl)-5,7-dihydro-4H-pyrazolo[3,4-c]pyridin-6-yl]-(6-methoxy-3-pyridyl)methanone]	263
C[C@H]1c2nn(C)c(-c3cc(F)c(F)c(F)c3)c2CCN1C(=O)c1cccc(OC(F)(F)F)c1 [Example 262, [(7S)-2,7-Dimethyl-3-(3,4,5-trifluorophenyl)-5,7-dihydro-4H-pyrazolo[3,4-c]pyridin-6-yl]-[3-(trifluoromethoxy)phenyl]methanone]	52.8
Cn1nc2c(c1-c1ccccc1)CCN(C(=O)c1ccc3[nH]cnc3c1)C2 [Example 71, (1H-Benzo[d]imidazol-5-yl)(2-methyl-3-phenyl-2,4,5,7-tetrahydro-6H-pyrazolo[3,4-c]pyridin-6-yl)methanone]	1010
Cn1nc2c(c1-c1ccccc1)CCN(C(=O)c1c(F)ccc3[nH]ccc13)C2 [Example 47, (5-Fluoro-1H-indol-4-yl)(2-methyl-3-phenyl-2,4,5,7-tetrahydro-6H-pyrazolo[3,4-c]pyridin-6-yl)methanone]	70.2
CC1c2nn(C)c(-c3cc(F)cc(F)c3)c2CCN1C(=O)c1ncn(-c2ccccc2)n1 (centres unmarked) [Example 148, (3-(3,5-Difluorophenyl)-2,7-dimethyl-2,4,5,7-tetrahydro-6H-pyrazolo[3,4-c]pyridin-6-yl)(1-phenyl-1H-1,2,4-triazol-3-yl)methanone]	67.1
Cc1nc2ccc(C(=O)N3CCc4c(nn(C)c4-c4cc(Cl)cc(Cl)c4)[C@@H]3C)cc2o1 [Example 172, (S)-(3-(3,5-Dichlorophenyl)-2,7-dimethyl-2,4,5,7-tetrahydro-6H-pyrazolo[3,4-c]pyridin-6-yl)(2-methylbenzo[d]oxazol-6-yl)methanone]	4.89
COc1cc(Cl)cc(C(=O)N2CCc3c(nn(C)c3-c3cc(F)c(F)c(F)c3)[C@@H]2C)c1 [Example 192, (S)-(3-Chloro-5-methoxyphenyl)(2,7-dimethyl-3-(3,4,5-trifluorophenyl)-2,4,5,7-tetrahydro-6H-pyrazolo[3,4-c]pyridin-6-yl)methanone]	6.78
COc1nccc(C(=O)N2CCc3c(nn(C)c3-c3cc(F)c(F)c(F)c3)[C@@H]2C)c1C [Example 314, [(7S)-2,7-Dimethyl-3-(3,4,5-trifluorophenyl)-5,7-dihydro-4H-pyrazolo[3,4-c]pyridin-6-yl]-(2-methoxy-3-methyl-4-pyridyl)methanone]	20.6
C[C@H]1c2nn(C)c(-c3cc(F)c(F)c(F)c3)c2CCN1C(=O)c1ccn2nccc2c1 [Example 228, (S)-(2,7-Dimethyl-3-(3,4,5-trifluorophenyl)-2,4,5,7-tetrahydro-6H-pyrazolo[3,4-c]pyridin-6-yl)(pyrazolo[1,5-a]pyridin-5-yl)methanone]	48.1
C[C@H]1c2nn(C)c(-c3cc(F)cc(F)c3)c2CCN1C(=O)c1cccc(OCCF)c1 [Example 139, (S)-(3-(3,5-Difluorophenyl)-2,7-dimethyl-2,4,5,7-tetrahydro-6H-pyrazolo[3,4-c]pyridin-6-yl)(3-(2-fluoroethoxy)phenyl)methanone]	9.8
C[C@H]1c2nn(C)c(-c3cc(F)c(F)c(F)c3)c2CCN1C(=O)c1cc2cccnc2n1C [Example 222, (S)-(2,7-Dimethyl-3-(3,4,5-trifluorophenyl)-2,4,5,7-tetrahydro-6H-pyrazolo[3,4-c]pyridin-6-yl)(1-methyl-1H-pyrrolo[2,3-b]pyridin-2-yl)methanone]	64.7
Cn1nc2c(c1-c1ccccc1)CCN(C(=O)c1ccnc3ccccc13)C2 [Example 86, (2-Methyl-3-phenyl-2,4,5,7-tetrahydro-6H-pyrazolo[3,4-c]pyridin-6-yl)(quinolin-4-yl)methanone]	32.4
Cc1cccc2cc(C(=O)N3CCc4c(nn(C)c4-c4ccccc4)C3)[nH]c12 [Example 50, (7-Methyl-1H-indol-2-yl)(2-methyl-3-phenyl-2,4,5,7-tetrahydro-6H-pyrazolo[3,4-c]pyridin-6-yl)methanone]	2000
Cn1nc2c(c1-c1ccccc1)CCN(C(=O)c1csc3ccccc13)C2 [Example 40, Benzo[b]thiophen-3-yl(2-methyl-3-phenyl-2,4,5,7-tetrahydro-6H-pyrazolo[3,4-c]pyridin-6-yl)methanone]	141
C[C@H]1c2nn(C)c(-c3cc(F)c(F)c(F)c3)c2CCN1C(=O)c1cc(-c2cnn(C)c2)ccc1F [Example 274, [(7S)-2,7-Dimethyl-3-(3,4,5-trifluorophenyl)-5,7-dihydro-4H-pyrazolo[3,4-c]pyridin-6-yl]-[2-fluoro-5-(1-methylpyrazol-4-yl)phenyl]methanone]	13.7
C[C@H]1c2nn(C)c(-c3cc(F)cc(F)c3)c2CCN1C(=O)c1cccc2c1ccn2CCF [Example 150, (S)-(3-(3,5-Difluorophenyl)-2,7-dimethyl-2,4,5,7-tetrahydro-6H-pyrazolo[3,4-c]pyridin-6-yl)(1-(2-fluoroethyl)-1H-indol-4-yl)methanone]	0.67
C[C@H]1c2nn(C)c(-c3cc(F)cc(F)c3)c2CCN1C(=O)c1cccc(OCCF)c1F [Example 141, (S)-(3-(3,5-Difluorophenyl)-2,7-dimethyl-2,4,5,7-tetrahydro-6H-pyrazolo[3,4-c]pyridin-6-yl)(2-fluoro-3-(2-fluoroethoxy)phenyl)methanone]	1.72
Cc1ccc(-c2c3c(nn2C)CN(C(=O)c2noc4ccccc24)CC3)s1 [Example 102, Benzo[d]isoxazol-3-yl(2-methyl-3-(5-methylthiophen-2-yl)-2,4,5,7-tetrahydro-6H-pyrazolo[3,4-c]pyridin-6-yl)methanone]	158
C[C@H]1c2nn(C)c(-c3cc(F)c(F)c(F)c3)c2CCN1C(=O)c1ccccc1-n1cnc(C(F)(F)F)n1 [Example 282, [(7S)-2,7-Dimethyl-3-(3,4,5-trifluorophenyl)-5,7-dihydro-4H-pyrazolo[3,4-c]pyridin-6-yl]-[2-[3-(trifluoromethyl)-1,2,4-triazol-1-yl]phenyl]methanone]	1870
